Results: the NIST ThermoML archive (doi:10.1021/je400486p)
± gives the expanded uncertainty stated by the source.

Assay: xn = mol fraction of the nth substance listed
Details: 101.3 kPa, Liquid; for viscosity: Concentric cylinders viscometry; for mass density: Vibrating tube method

CN1CCCC1=O [N-methylpyrrolidone] + CCC(C)O
Details	mass density [kg/m3]	viscosity [mPa·s]
288.15 K, x2 = 0	1037.3 ± 0.26	1.99 ± 0.023
288.15 K, x2 = 0.1049	1014.52 ± 0.22	1.984 ± 0.023
288.15 K, x2 = 0.2001	993.63 ± 0.2	1.974 ± 0.023
288.15 K, x2 = 0.3009	971.257 ± 0.18	1.972 ± 0.023
288.15 K, x2 = 0.4019	948.589 ± 0.17	2.005 ± 0.023
288.15 K, x2 = 0.5003	926.282 ± 0.16	2.032 ± 0.024
288.15 K, x2 = 0.5995	903.599 ± 0.15	2.118 ± 0.025
288.15 K, x2 = 0.7004	880.362 ± 0.15	2.302 ± 0.027
288.15 K, x2 = 0.7985	857.64 ± 0.15	2.618 ± 0.031
288.15 K, x2 = 0.899	834.259 ± 0.15	3.227 ± 0.038
293.15 K, x2 = 0	1032.84 ± 0.26	1.823 ± 0.021
293.15 K, x2 = 0.1049	1010.11 ± 0.22	1.815 ± 0.021
293.15 K, x2 = 0.2001	989.247 ± 0.2	1.801 ± 0.021
293.15 K, x2 = 0.3009	966.914 ± 0.18	1.798 ± 0.021
293.15 K, x2 = 0.4019	944.287 ± 0.17	1.817 ± 0.021
293.15 K, x2 = 0.5003	922.02 ± 0.16	1.839 ± 0.022
293.15 K, x2 = 0.5995	899.376 ± 0.16	1.905 ± 0.022
293.15 K, x2 = 0.7004	876.183 ± 0.15	2.048 ± 0.024
293.15 K, x2 = 0.7985	853.51 ± 0.15	2.29 ± 0.027
293.15 K, x2 = 0.899	830.183 ± 0.15	2.757 ± 0.033
298.15 K, x2 = 0	1028.38 ± 0.25	1.679 ± 0.019
298.15 K, x2 = 0.1049	1005.69 ± 0.22	1.664 ± 0.019
298.15 K, x2 = 0.2001	984.854 ± 0.2	1.652 ± 0.019
298.15 K, x2 = 0.3009	962.556 ± 0.18	1.647 ± 0.019
298.15 K, x2 = 0.4019	939.97 ± 0.17	1.655 ± 0.019
298.15 K, x2 = 0.5003	917.742 ± 0.16	1.67 ± 0.02
298.15 K, x2 = 0.5995	895.133 ± 0.16	1.72 ± 0.02
298.15 K, x2 = 0.7004	871.975 ± 0.15	1.832 ± 0.022
298.15 K, x2 = 0.7985	849.341 ± 0.15	2.019 ± 0.024
298.15 K, x2 = 0.899	826.054 ± 0.15	2.368 ± 0.028
303.15 K, x2 = 0	1023.92 ± 0.25	1.555 ± 0.018
303.15 K, x2 = 0.1049	1001.27 ± 0.21	1.538 ± 0.018
303.15 K, x2 = 0.2001	980.46 ± 0.2	1.524 ± 0.018
303.15 K, x2 = 0.3009	958.194 ± 0.18	1.514 ± 0.018
303.15 K, x2 = 0.4019	935.644 ± 0.17	1.516 ± 0.018
303.15 K, x2 = 0.5003	913.448 ± 0.16	1.522 ± 0.018
303.15 K, x2 = 0.5995	890.869 ± 0.16	1.56 ± 0.019
303.15 K, x2 = 0.7004	867.739 ± 0.15	1.645 ± 0.02
303.15 K, x2 = 0.7985	845.132 ± 0.15	1.792 ± 0.022
303.15 K, x2 = 0.899	821.864 ± 0.15	2.051 ± 0.025
308.15 K, x2 = 0	1019.46 ± 0.24	1.444 ± 0.017
308.15 K, x2 = 0.1049	996.845 ± 0.21	1.427 ± 0.017
308.15 K, x2 = 0.2001	976.091 ± 0.2	1.411 ± 0.017
308.15 K, x2 = 0.3009	953.86 ± 0.18	1.399 ± 0.017
308.15 K, x2 = 0.4019	931.323 ± 0.17	1.393 ± 0.017
308.15 K, x2 = 0.5003	909.136 ± 0.17	1.397 ± 0.017
308.15 K, x2 = 0.5995	886.575 ± 0.16	1.424 ± 0.017
308.15 K, x2 = 0.7004	863.468 ± 0.15	1.489 ± 0.018
308.15 K, x2 = 0.7985	840.874 ± 0.15	1.598 ± 0.019
308.15 K, x2 = 0.899	817.592 ± 0.15	1.786 ± 0.022
313.15 K, x2 = 0	1015 ± 0.24	1.346 ± 0.016
313.15 K, x2 = 0.1049	992.413 ± 0.21	1.327 ± 0.016
313.15 K, x2 = 0.2001	971.652 ± 0.2	1.311 ± 0.015
313.15 K, x2 = 0.3009	949.443 ± 0.18	1.297 ± 0.015
313.15 K, x2 = 0.4019	926.949 ± 0.17	1.285 ± 0.015
313.15 K, x2 = 0.5003	904.8 ± 0.17	1.285 ± 0.015
313.15 K, x2 = 0.5995	882.258 ± 0.16	1.303 ± 0.016
313.15 K, x2 = 0.7004	859.157 ± 0.15	1.351 ± 0.016
313.15 K, x2 = 0.7985	836.567 ± 0.15	1.431 ± 0.017
313.15 K, x2 = 0.899	813.284 ± 0.15	1.566 ± 0.019
318.15 K, x2 = 0	1010.53 ± 0.24	1.259 ± 0.015
318.15 K, x2 = 0.1049	987.978 ± 0.21	1.239 ± 0.015
318.15 K, x2 = 0.2001	967.237 ± 0.2	1.221 ± 0.015
318.15 K, x2 = 0.3009	945.05 ± 0.19	1.206 ± 0.015
318.15 K, x2 = 0.4019	922.578 ± 0.17	1.19 ± 0.014
318.15 K, x2 = 0.5003	900.445 ± 0.17	1.186 ± 0.014
318.15 K, x2 = 0.5995	877.912 ± 0.16	1.197 ± 0.015
318.15 K, x2 = 0.7004	854.81 ± 0.16	1.23 ± 0.015
318.15 K, x2 = 0.7985	832.207 ± 0.15	1.286 ± 0.016
318.15 K, x2 = 0.899	808.882 ± 0.15	1.379 ± 0.017
323.15 K, x2 = 0	1006.06 ± 0.23	1.182 ± 0.014
323.15 K, x2 = 0.1049	983.533 ± 0.21	1.161 ± 0.014
323.15 K, x2 = 0.2001	962.815 ± 0.2	1.141 ± 0.014
323.15 K, x2 = 0.3009	940.651 ± 0.19	1.124 ± 0.014
323.15 K, x2 = 0.4019	918.196 ± 0.18	1.104 ± 0.013
323.15 K, x2 = 0.5003	896.069 ± 0.17	1.098 ± 0.013
323.15 K, x2 = 0.5995	873.531 ± 0.16	1.103 ± 0.014
323.15 K, x2 = 0.7004	850.415 ± 0.16	1.124 ± 0.014
323.15 K, x2 = 0.7985	827.785 ± 0.15	1.162 ± 0.015
323.15 K, x2 = 0.899	804.404 ± 0.15	1.222 ± 0.015
